Patent US20260283924A1, “TOPICAL COMPOSITIONS FOR PROMOTING HAIR GROWTH” (ESTETRA SRL, priority 2023, published 2026)

Tested on: occipital hair follicles (healthy donor)
Experiment: Healthy donor hair follicle organ culture (ex vivo model), Example 8
Type: cell-based, human
Settings: 300 nM
Experimental: In brief, 24 full-length occipital hair follicles (HF) were obtained from one healthy donor. […] Test substance (either vehicle (0.03% EtOH), E2 at concentration of 300 nM or E4 at concentrations of 3 μM or 300 nM) was added to the medium at the end of the 24 h. Total culturing time was 5 days depending on the stage of the HFs in the vehicle group. The experimental design is depicted in FIG. 23.

Q: For `C[C@]12CC[C@@H]3c4ccc(O)cc4CC[C@H]3[C@@H]1CC[C@@H]2O` [Formulation E2, 17beta-estradiol], which “K15 expression in the suprabulbar outer root sheath” value is on record?
A: tendentially increased

Q: And the “area of the dermal papilla” value?
A: no effect

Q: And the “density of cells in the dermal cup of anagen HFs” value?
A: no effect

Q: And the “density of cells in the dermal papilla” value?
A: no effect

Q: What about the “density of cells in the dermal papilla stalk” value of the same compound?
A: no effect

Q: What about the “hair matrix keratinocyte proliferation” value of the same compound?
A: tendentially increased

Q: What about the “hair shaft production (reduction vs vehicle)” value of the same compound?
A: significantly reduced

Q: What about the microscopic hair cycle of the same compound?
A: did not affect the hair cycle

Q: What about the “number of CD34+ cells in the suprabulbar outer root sheath” value of the same compound?
A: no effect

Q: What about the “number of cells (K15) in the suprabulbar outer root sheath” value of the same compound?
A: tendentially increased

Q: What about the “total number of cells in the dermal cup of anagen HFs” value of the same compound?
A: no effect

Q: And the “total number of cells in the dermal papilla” value?
A: no effect

Q: And the “total number of cells in the dermal papilla stalk” value?
A: no effect

Q: And the “K15 expression in the suprabulbar outer root sheath” value (listed as Estradiol)?
A: tendentially increase K15 expression

Q: What about the “area of the dermal papilla” value (listed as Estradiol) of the same compound?
A: does not display a significant effect

Q: What about the “density of cells in the dermal cup of anagen HFs” value (listed as Estradiol) of the same compound?
A: does not display a significant effect

Q: What about the “density of cells in the dermal papilla” value (listed as Estradiol) of the same compound?
A: does not display a significant effect

Q: And the “density of cells in the dermal papilla stalk” value (listed as Estradiol)?
A: does not display a significant effect

Q: What about the “hair matrix keratinocyte proliferation” value (listed as Estradiol) of the same compound?
A: increased

Q: What about the “hair shaft production (reduction vs vehicle)” value (listed as Estradiol) of the same compound?
A: Reduction of hair shaft production

Q: And the microscopic hair cycle (listed as Estradiol)?
A: does not affect hair cycle

Q: And the “number of CD34+ cells in the suprabulbar outer root sheath” value (listed as Estradiol)?
A: does not display any effect

Q: What about the “number of cells (K15) in the suprabulbar outer root sheath” value (listed as Estradiol) of the same compound?
A: tendentially increase

Q: And the “total number of cells in the dermal cup of anagen HFs” value (listed as Estradiol)?
A: does not display a significant effect

Q: And the “total number of cells in the dermal papilla” value (listed as Estradiol)?
A: does not display a significant effect

Q: And the “total number of cells in the dermal papilla stalk” value (listed as Estradiol)?
A: does not display a significant effect
